Square brackets hold non-standard residues; d marks the D form. Peptide text beside a SMILES is read from it. sY = N[C@@H](Cc1ccc(OS(=O)(=O)O)cc1)C(=O)O; pGlu = O=C1CC[C@@H](C(=O)O)N1
What was measured:
[1] = tested on: CHO-K1 cells transfected with an empty vector; assay: Control: CHO-K1 aequorin (G5A) cells transfected with empty pcDNA 3.1(+) vector; type: cell-based, Chinese hamster
Excerpt: To enable testing of ArSK/CCK1 and ArSK/CCK2 as candidate ligands for ArSK/CCKR, a full-length cDNA encoding ArSK/CCKR was synthesized by GenScript (Piscataway, NJ) and cloned into pcDNA 3.1+ vector (Invitrogen, Thermo Fisher Scientific, Waltham, MA). A partial Kozak translation initiation sequence (CACC) was introduced upstream to the start codon (ATG). CHO-K1 cells stably expressing the mitochondrial targeted calcium-sensitive bioluminescent reporter GFP-aequorin fusion protein (G5A) ([Baubet et al., 2000]) were used as a heterologous expression system for ArSK/CCKR. These cells have been used previously for neuropeptide receptor deorphanisation ([Bauknecht and Jékely, 2015]) and were generously supplied to us by Dr Gáspár Jékely (University of Exeter). The cell line was generated using the CHO-K1 cell line from Sigma-Aldrich (85051005; RRID: CVCL_0214), which is certified by the European Collection of Authenticated Cell Cultures (ECACC), and expression of the GFP-aequorin fusion protein (G5A) in the cell line was determined by functionality in displaying calcium-activated luminescence. […] Cells were cultured, co-transfected with the pcDNA 3.1+ vector containing the ArSK/CCKR cDNA sequence and plasmids encoding the promiscuous human G-protein Gα16. Then bioluminescence-based receptor assays were performed, as described previously for A. rubens luqin-type receptors ([Yañez-Guerra et al., 2018]).
The peptides were diluted in distilled water and tested as candidate ligands for ArSK/CCKR at concentrations ranging from 3 × 10^−17 to 10^−4 M. Concentration-response data were determined as a percentage of the highest response for each peptide (100% activation). EC50 values were calculated from concentration-response curves based on four to six independent transfections and averaging two to three replicates in each transfection using Prism 6.0 (RRID:SCR_002798; GraphPad software, La Jolla, CA). Cells transfected with an empty vector were used for control experiments.

tube foot preparations = assay: In vitro contraction of tube foot preparations (organ bath); parameters: species or system Asterias rubens; settings: for contraction of tube foot preparations: in vitro, 1 nM to 1 µM, n = 8–10; for mean effect on tube foot preparations, % of the effect of 10 µM acetylcholine: peptide 1 µM
Description: Effects of peptides on preparations were tested and recorded using an isotonic transducer (MLT0015, ADInstruments Pty Ltd) connected to a bridge amplifier (FE221 Bridge Amp, ADInstruments Pty Ltd) linked to PowerLab data acquisition hardware (2/36, ADInstruments Pty Ltd). Data were collected and analysed using LabChart (RRID:SCR_017551; v8.0.7) software installed on a laptop computer (Lenovo E540, Windows 7 Professional). Stock solutions of synthetic peptides were prepared in distilled water and added to the organ bath to achieve final concentrations ranging from 0.1 nM to 1 μM. To assess the viability of preparations and to enable normalization of responses to ArSK/CCK1 or ArSK/CCK2, the starfish neuropeptide NGFFYamide (100 nM) was tested on cardiac stomach preparations and acetylcholine (10 µM) was tested on tube foot and apical muscle preparations. To assess the importance of tyrosine sulphation for peptide bioactivity, a non-sulphated analog of ArSK/CCK2 (ArSK/CCK2(ns)) was also tested on cardiac stomach (n = 5), tube foot, and apical muscle preparations (data not shown).

Asterias rubens = assay: In vivo retraction of the everted cardiac stomach after injection; settings: for cardiac stomach retraction in vivo: injection of 10 nmol (10 μl of 1 mM) into perivisceral coelom, eversion induced with 2% MgCl2 in seawater, 6 min; for reduction in the area of cardiac stomach everted: within 360 s after injection of 10 mol (10 µl 1 mM), normalized to area at T0, n = 6 (ArSK/CCK1), 6 (ArSK/CCK2), 8 (ArSK/CCK2(ns))
Description: Therefore, experiments were performed to investigate if ArSK/CCK1 and ArSK/CCK2 also trigger cardiac stomach retraction in A. rubens. Twenty specimens of A. rubens, which had been withheld from a food supply for 1 week, were placed in a glass tank containing 2% magnesium chloride (MgCl2; Sigma-Aldrich, Gillingham, UK) dissolved in seawater, which acts as a muscle relaxant in marine invertebrates ([Mayer, 1909]). This treatment conveniently and reproducibly causes eversion of the cardiac stomach in A. rubens, typically within a period of ~30 min ([Semmens et al., 2013]). Hamilton 75 N 10 μl syringes (Sigma-Aldrich, Gillingham, UK) were used to inject test compounds into the perivisceral coelom of animals, inserting the needle through the aboral body wall of the arms proximal to the junctions with the central disk region. Care was taken to inject neuropeptides (ArSK/CCK1, ArSK/CCK2 and ArSK/CCK2(ns)) or distilled water (control) into the perivisceral coelom and not into the cardiac stomach. All animals were first injected with 10 μl of distilled water (control) and video-recorded for 6 min. The same animals were then injected with 10 μl of 1 mM peptide (10 nmol) and video-recorded for 6 min. Static images from video recordings were captured at 30 s intervals from the time of injection. Then the two-dimensional area of everted cardiac stomach was measured from the images using the ImageJ software (version 1.0; http://rsb.info.nih.gov/ij) and normalized as a percentage of the area of cardiac stomach everted at the time of injection (T0).

SMILES	luminescence response [1]	effectiveness on tube foot preparations compared with ArSK/CCK2 (tube foot preparations; 25 and 100 nM, Bonferroni's test p < 0.01 and 0.05)	contraction of tube foot preparations (tube foot preparations)	mean effect on tube foot preparations, % of the effect of 10 µM acetylcholine (tube foot preparations)	cardiac stomach retraction in vivo (Asterias rubens)	reduction in the area of cardiac stomach everted (Asterias rubens)
CC(C)C[C@H](NC(=O)CNC(=O)[C@H](Cc1c[nH]cn1)NC(=O)CNC(=O)[C@H](Cc1ccc(OS(=O)(=O)O)cc1)NC(=O)[C@H](CC(=O)O)NC(=O)[C@H](CC(=O)O)NC(=O)[C@@H](NC(=O)[C@H](CCCCN)NC(=O)[C@H](CO)NC(=O)[C@@H]1CCC(=O)N1)C(C)C)C(=O)N[C@@H](Cc1ccccc1)C(=O)N[C@@H](Cc1c[nH]c2ccccc12)C(N)=O [ArSK/CCK1] ([pGlu]SKVDD[sY]GHGLFW-NH2)	did not elicit luminescence responses	significantly more effective than ArSK/CCK2	concentration-dependent contraction	~ 220%	triggered cardiac stomach retraction	> 50%
CC(C)C[C@H](NC(=O)CNC(=O)[C@H](Cc1ccccc1)NC(=O)CNC(=O)[C@H](Cc1ccc(OS(=O)(=O)O)cc1)NC(=O)[C@H](CCC(N)=O)NC(=O)[C@H](CC(=O)O)NC(=O)[C@H](CC(=O)O)NC(=O)CNC(=O)CN)C(=O)N[C@@H](Cc1ccccc1)C(=O)N[C@@H](Cc1ccccc1)C(N)=O [ArSK/CCK2] (H-GGDDQ[sY]GFGLFF-NH2; N-terminus assumed)	did not elicit luminescence responses	–	concentration-dependent contraction	~ 110%	triggered cardiac stomach retraction	> 50%
CC(C)C[C@H](NC(=O)CNC(=O)[C@H](Cc1ccccc1)NC(=O)CNC(=O)[C@H](Cc1ccc(O)cc1)NC(=O)[C@H](CCC(N)=O)NC(=O)[C@H](CC(=O)O)NC(=O)[C@H](CC(=O)O)NC(=O)CNC(=O)CN)C(=O)N[C@@H](Cc1ccccc1)C(=O)N[C@@H](Cc1ccccc1)C(N)=O [ArSK/CCK2(ns)] (H-GGDDQYGFGLFF-NH2; N-terminus assumed)	did not elicit luminescence responses	–	did not cause contraction	–	did not trigger cardiac stomach retraction	no effect

— PMC8428848, “Ancient role of sulfakinin/cholecystokinin-type signalling in inhibitory regulation of feeding processes revealed in an echinoderm” (eLife, 2021)
